Source: PMC7933930, “Development of a small molecule that corrects misfolding and increases secretion of Z α1‐antitrypsin” (EMBO Molecular Medicine, 2021)

Assays:
[1] = target: Norepinephrine transporter (Homo sapiens, UniProt P23975); experiment: Off‐target panel: Norepinephrine transporter (DRX); assay type: cell-based
Protocol: (§1) GSK716 selectivity and PK properties were profiled in order to investigate the suitability of GSK716 for progression into in vivo studies and the potential for taking it forward as a clinical candidate for testing in humans. Since GSK716 results in loss of inhibitory activity of α1‐antitrypsin, the effect of the compound was assessed on other closely related serpins. […] Furthermore, there were no off‐target effects in a panel of assays considered predictive of known safety liabilities that precluded further development of GSK716 (Table EV1).

Adrenergic β2 = Adrenergic β2 (Homo sapiens, UniProt P07550); experiment: Off‐target panel: Adrenergic β2 (DRX); assay type: cell-based; settings: read-out: Mean (PXC50)
Sequence of Adrenergic β2 (P07550 whole entry): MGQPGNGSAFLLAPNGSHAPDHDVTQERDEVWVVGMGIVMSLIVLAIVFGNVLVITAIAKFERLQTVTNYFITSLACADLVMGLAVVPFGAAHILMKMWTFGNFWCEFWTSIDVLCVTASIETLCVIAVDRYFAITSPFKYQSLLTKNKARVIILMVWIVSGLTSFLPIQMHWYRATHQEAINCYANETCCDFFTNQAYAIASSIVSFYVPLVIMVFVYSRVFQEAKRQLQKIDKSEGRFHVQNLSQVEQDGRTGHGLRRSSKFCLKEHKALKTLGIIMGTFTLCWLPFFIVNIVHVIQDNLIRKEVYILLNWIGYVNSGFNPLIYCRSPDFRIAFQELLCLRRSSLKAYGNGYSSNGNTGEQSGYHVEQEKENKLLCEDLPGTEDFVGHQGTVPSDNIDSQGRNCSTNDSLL
Protocol: as §1

PXR (human) = PXR (human) (Homo sapiens, UniProt O75469); experiment: Off‐target panel: PXR (human); assay type: cell-based; settings: Activator, read-out: Mean (PXC50) (converted)
Sequence of PXR (human) (O75469 whole entry): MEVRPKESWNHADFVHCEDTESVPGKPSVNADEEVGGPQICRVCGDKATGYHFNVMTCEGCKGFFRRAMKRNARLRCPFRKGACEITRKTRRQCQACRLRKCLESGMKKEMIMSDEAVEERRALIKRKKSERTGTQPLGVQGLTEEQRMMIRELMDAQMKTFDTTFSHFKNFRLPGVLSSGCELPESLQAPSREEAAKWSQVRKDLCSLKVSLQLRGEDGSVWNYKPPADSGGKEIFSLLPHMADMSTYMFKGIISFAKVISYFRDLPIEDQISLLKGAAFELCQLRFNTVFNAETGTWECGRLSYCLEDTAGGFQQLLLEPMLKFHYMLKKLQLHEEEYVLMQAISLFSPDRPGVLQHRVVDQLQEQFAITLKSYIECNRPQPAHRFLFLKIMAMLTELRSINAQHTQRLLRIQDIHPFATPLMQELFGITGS
Protocol: as §1

Serotonin 5HT3 = target: T1, Serotonin 5HT3 (Homo sapiens, UniProt P46098); experiment: Off‐target panel: Serotonin 5HT3 (DRX); assay type: cell-based
T1 sequence (P46098 24-478): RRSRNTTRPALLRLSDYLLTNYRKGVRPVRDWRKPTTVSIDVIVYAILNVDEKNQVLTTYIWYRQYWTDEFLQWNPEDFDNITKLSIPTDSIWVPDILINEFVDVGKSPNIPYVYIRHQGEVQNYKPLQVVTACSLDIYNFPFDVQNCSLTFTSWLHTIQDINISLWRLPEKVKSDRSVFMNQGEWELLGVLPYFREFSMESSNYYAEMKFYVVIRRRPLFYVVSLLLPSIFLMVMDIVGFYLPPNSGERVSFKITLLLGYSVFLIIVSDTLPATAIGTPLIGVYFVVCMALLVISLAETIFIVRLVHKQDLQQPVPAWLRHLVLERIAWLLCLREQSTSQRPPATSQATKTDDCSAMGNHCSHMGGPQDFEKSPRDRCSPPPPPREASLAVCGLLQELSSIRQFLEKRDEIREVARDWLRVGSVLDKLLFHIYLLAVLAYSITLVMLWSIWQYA
Protocol: as §1

Aurora B (STK12) = Aurora B (STK12) (Homo sapiens, UniProt Q96GD4); experiment: Off‐target panel: Aurora B (STK12); assay type: biochemical; settings: Inhibition, read-out: Mean (PXC50)
Sequence of Aurora B (STK12) (Q96GD4 whole entry, species assumed): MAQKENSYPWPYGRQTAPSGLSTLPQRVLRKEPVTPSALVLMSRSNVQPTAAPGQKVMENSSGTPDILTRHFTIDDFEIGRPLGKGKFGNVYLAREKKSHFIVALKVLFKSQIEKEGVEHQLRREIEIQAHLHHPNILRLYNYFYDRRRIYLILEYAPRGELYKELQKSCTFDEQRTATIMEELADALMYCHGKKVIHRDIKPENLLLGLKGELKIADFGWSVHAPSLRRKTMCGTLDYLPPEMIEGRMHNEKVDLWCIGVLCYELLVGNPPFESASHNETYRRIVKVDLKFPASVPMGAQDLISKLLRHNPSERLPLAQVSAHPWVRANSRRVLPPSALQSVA
Protocol: as §1

Sequence of Norepinephrine transporter (P23975 whole entry, species assumed): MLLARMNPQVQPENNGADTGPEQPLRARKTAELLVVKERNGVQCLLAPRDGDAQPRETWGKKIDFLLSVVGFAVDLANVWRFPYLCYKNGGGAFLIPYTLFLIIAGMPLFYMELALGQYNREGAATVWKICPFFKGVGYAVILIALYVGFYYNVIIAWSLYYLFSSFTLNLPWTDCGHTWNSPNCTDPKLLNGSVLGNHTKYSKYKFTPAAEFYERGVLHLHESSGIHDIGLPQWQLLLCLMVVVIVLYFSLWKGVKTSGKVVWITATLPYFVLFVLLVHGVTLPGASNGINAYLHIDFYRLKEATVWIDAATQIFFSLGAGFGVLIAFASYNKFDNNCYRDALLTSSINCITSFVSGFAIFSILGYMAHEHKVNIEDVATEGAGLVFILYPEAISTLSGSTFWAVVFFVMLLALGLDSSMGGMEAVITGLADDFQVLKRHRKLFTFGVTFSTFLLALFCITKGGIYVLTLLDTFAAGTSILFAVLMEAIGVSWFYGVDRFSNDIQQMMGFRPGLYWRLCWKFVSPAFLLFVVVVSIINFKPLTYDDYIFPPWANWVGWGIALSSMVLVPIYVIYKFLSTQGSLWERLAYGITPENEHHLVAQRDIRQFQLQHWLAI

CCC[C@@H](NC(=O)c1cccc2c1CC(=O)N2)[C@@H](O)c1cccc(F)c1C [GSK716]
IC50 [1]: > 100 µM
EC50 (Adrenergic β2; Agonist): > 100 µM
IC50 (Adrenergic β2; Antagonist): > 100 µM
EC50 (PXR (human)): 20 µM
EC50 (Serotonin 5HT3): > 50.1 µM
IC50 (Serotonin 5HT3): 31.6 µM
IC50 (Aurora B (STK12)): > 31.6 µM
